Results from the NIST ThermoML archive (doi:10.1021/je700640r).
Numbers after ± are expanded uncertainties.

Test: activity coefficient (dimensionless); of the first substance listed, at infinite dilution; xn = mol fraction of the nth substance listed
Details: 333.15 K; Liquid; Chromatography; x1 = 0
Molecule `CC(C)CCO` [3-methylbutan-1-ol] + CCC[n+]1ccn(C)c1C.F[B-](F)(F)F has an activity coefficient of 4.18 ± 0.36. `C1COCCO1` [1,4-dioxane] + CCC[n+]1ccn(C)c1C.F[B-](F)(F)F gave an activity coefficient of 3.17 ± 0.27. `CC(C)=O` [acetone] + CCC[n+]1ccn(C)c1C.F[B-](F)(F)F showed an activity coefficient of 2.61 ± 0.23. `ClC(Cl)(Cl)Cl` [tetrachloromethane] + CCC[n+]1ccn(C)c1C.F[B-](F)(F)F gave an activity coefficient of 9.58 ± 0.83. Work on `ClC(Cl)Cl` [trichloromethane] + CCC[n+]1ccn(C)c1C.F[B-](F)(F)F yielded an activity coefficient of 1.52 ± 0.13. Molecule `CCOC(C)=O` [ethyl acetate] + CCC[n+]1ccn(C)c1C.F[B-](F)(F)F has an activity coefficient of 8.75 ± 0.76. `CCO` [ethanol] + CCC[n+]1ccn(C)c1C.F[B-](F)(F)F showed an activity coefficient of 1.51 ± 0.13. `CC(C)CO` [2-methyl-1-propanol] + CCC[n+]1ccn(C)c1C.F[B-](F)(F)F showed an activity coefficient of 3.07 ± 0.26.

Same assay, conditions: 343.15 K; Liquid; Chromatography; x1 = 0
`CC#N` [acetonitrile] + CCC[n+]1ccn(C)c1C.F[B-](F)(F)F gave an activity coefficient of 1.36 ± 0.11. Molecule `CCCO` [propan-1-ol] + CCC[n+]1ccn(C)c1C.F[B-](F)(F)F has an activity coefficient of 2.37 ± 0.2. Work on `CO` [methanol] + CCC[n+]1ccn(C)c1C.F[B-](F)(F)F yielded an activity coefficient of 0.713 ± 0.061. In the case of `CCCCCO` [pentan-1-ol] + CCC[n+]1ccn(C)c1C.F[B-](F)(F)F, the activity coefficient is reported as 4.05 ± 0.35. `CCCCO` [butan-1-ol] + CCC[n+]1ccn(C)c1C.F[B-](F)(F)F gave an activity coefficient of 3.2 ± 0.28. `C1CCOC1` [tetrahydrofuran] + CCC[n+]1ccn(C)c1C.F[B-](F)(F)F gave an activity coefficient of 5.88 ± 0.51. In the case of `CCC(C)O` (centres undefined) [butan-2-ol] + CCC[n+]1ccn(C)c1C.F[B-](F)(F)F, the activity coefficient is reported as 2.87 ± 0.25. Work on `CC(C)O` [propan-2-ol] + CCC[n+]1ccn(C)c1C.F[B-](F)(F)F yielded an activity coefficient of 2.21 ± 0.19. In the case of `ClCCl` [dichloromethane] + CCC[n+]1ccn(C)c1C.F[B-](F)(F)F, the activity coefficient is reported as 2.01 ± 0.17. In the case of `CC(C)CCO` [3-methylbutan-1-ol] + CCC[n+]1ccn(C)c1C.F[B-](F)(F)F, the activity coefficient is reported as 3.78 ± 0.33. `C1COCCO1` [1,4-dioxane] + CCC[n+]1ccn(C)c1C.F[B-](F)(F)F showed an activity coefficient of 3.24 ± 0.28. Molecule `CC(C)=O` [acetone] + CCC[n+]1ccn(C)c1C.F[B-](F)(F)F has an activity coefficient of 2.66 ± 0.23. With `ClC(Cl)(Cl)Cl` [tetrachloromethane] + CCC[n+]1ccn(C)c1C.F[B-](F)(F)F the activity coefficient was 10 ± 0.86. In the case of `ClC(Cl)Cl` [trichloromethane] + CCC[n+]1ccn(C)c1C.F[B-](F)(F)F, the activity coefficient is reported as 1.65 ± 0.14. For `CCOC(C)=O` [ethyl acetate] + CCC[n+]1ccn(C)c1C.F[B-](F)(F)F, the activity coefficient was 8.71 ± 0.75. Work on `CCO` [ethanol] + CCC[n+]1ccn(C)c1C.F[B-](F)(F)F yielded an activity coefficient of 1.44 ± 0.12. `CC(C)CO` [2-methyl-1-propanol] + CCC[n+]1ccn(C)c1C.F[B-](F)(F)F showed an activity coefficient of 2.62 ± 0.23.

Same assay, conditions: 353.15 K; Liquid; Chromatography; x1 = 0
`CC#N` [acetonitrile] + CCC[n+]1ccn(C)c1C.F[B-](F)(F)F showed an activity coefficient of 1.35 ± 0.11. Work on `CCCO` [propan-1-ol] + CCC[n+]1ccn(C)c1C.F[B-](F)(F)F yielded an activity coefficient of 2.19 ± 0.19. With `CO` [methanol] + CCC[n+]1ccn(C)c1C.F[B-](F)(F)F the activity coefficient was 0.684 ± 0.059. In the case of `CCCCCO` [pentan-1-ol] + CCC[n+]1ccn(C)c1C.F[B-](F)(F)F, the activity coefficient is reported as 3.68 ± 0.32. For `CCCCO` [butan-1-ol] + CCC[n+]1ccn(C)c1C.F[B-](F)(F)F, the activity coefficient was 2.67 ± 0.23. `C1CCOC1` [tetrahydrofuran] + CCC[n+]1ccn(C)c1C.F[B-](F)(F)F showed an activity coefficient of 5.82 ± 0.5. With `CCC(C)O` (centres undefined) [butan-2-ol] + CCC[n+]1ccn(C)c1C.F[B-](F)(F)F the activity coefficient was 2.5 ± 0.22. `CC(C)O` [propan-2-ol] + CCC[n+]1ccn(C)c1C.F[B-](F)(F)F showed an activity coefficient of 2.04 ± 0.18. In the case of `ClCCl` [dichloromethane] + CCC[n+]1ccn(C)c1C.F[B-](F)(F)F, the activity coefficient is reported as 2.09 ± 0.18. Work on `CC(C)CCO` [3-methylbutan-1-ol] + CCC[n+]1ccn(C)c1C.F[B-](F)(F)F yielded an activity coefficient of 3.42 ± 0.29. For `C1COCCO1` [1,4-dioxane] + CCC[n+]1ccn(C)c1C.F[B-](F)(F)F, the activity coefficient was 3.29 ± 0.28. `CC(C)=O` [acetone] + CCC[n+]1ccn(C)c1C.F[B-](F)(F)F showed an activity coefficient of 2.71 ± 0.23. For `ClC(Cl)(Cl)Cl` [tetrachloromethane] + CCC[n+]1ccn(C)c1C.F[B-](F)(F)F, the activity coefficient was 10.4 ± 0.9. Molecule `ClC(Cl)Cl` [trichloromethane] + CCC[n+]1ccn(C)c1C.F[B-](F)(F)F has an activity coefficient of 1.78 ± 0.15. Molecule `CCOC(C)=O` [ethyl acetate] + CCC[n+]1ccn(C)c1C.F[B-](F)(F)F has an activity coefficient of 8.66 ± 0.75. With `CCO` [ethanol] + CCC[n+]1ccn(C)c1C.F[B-](F)(F)F the activity coefficient was 1.35 ± 0.11. Work on `CC(C)CO` [2-methyl-1-propanol] + CCC[n+]1ccn(C)c1C.F[B-](F)(F)F yielded an activity coefficient of 2.38 ± 0.2.

Same assay, conditions: 363.15 K; Liquid; Chromatography; x1 = 0
`CC#N` [acetonitrile] + CCC[n+]1ccn(C)c1C.F[B-](F)(F)F showed an activity coefficient of 1.34 ± 0.11. `CCCO` [propan-1-ol] + CCC[n+]1ccn(C)c1C.F[B-](F)(F)F showed an activity coefficient of 1.88 ± 0.16. In the case of `CO` [methanol] + CCC[n+]1ccn(C)c1C.F[B-](F)(F)F, the activity coefficient is reported as 0.642 ± 0.056. Molecule `CCCCCO` [pentan-1-ol] + CCC[n+]1ccn(C)c1C.F[B-](F)(F)F has an activity coefficient of 3.12 ± 0.27. In the case of `CCCCO` [butan-1-ol] + CCC[n+]1ccn(C)c1C.F[B-](F)(F)F, the activity coefficient is reported as 2.27 ± 0.2. For `C1CCOC1` [tetrahydrofuran] + CCC[n+]1ccn(C)c1C.F[B-](F)(F)F, the activity coefficient was 5.78 ± 0.5. Work on `CCC(C)O` (centres undefined) [butan-2-ol] + CCC[n+]1ccn(C)c1C.F[B-](F)(F)F yielded an activity coefficient of 2.13 ± 0.18. With `CC(C)O` [propan-2-ol] + CCC[n+]1ccn(C)c1C.F[B-](F)(F)F the activity coefficient was 1.86 ± 0.16. With `ClCCl` [dichloromethane] + CCC[n+]1ccn(C)c1C.F[B-](F)(F)F the activity coefficient was 2.17 ± 0.19. `CC(C)CCO` [3-methylbutan-1-ol] + CCC[n+]1ccn(C)c1C.F[B-](F)(F)F gave an activity coefficient of 3.02 ± 0.26. For `C1COCCO1` [1,4-dioxane] + CCC[n+]1ccn(C)c1C.F[B-](F)(F)F, the activity coefficient was 3.35 ± 0.29. Molecule `CC(C)=O` [acetone] + CCC[n+]1ccn(C)c1C.F[B-](F)(F)F has an activity coefficient of 2.74 ± 0.24. With `ClC(Cl)(Cl)Cl` [tetrachloromethane] + CCC[n+]1ccn(C)c1C.F[B-](F)(F)F the activity coefficient was 10.7 ± 0.92. `ClC(Cl)Cl` [trichloromethane] + CCC[n+]1ccn(C)c1C.F[B-](F)(F)F showed an activity coefficient of 1.91 ± 0.16. `CCOC(C)=O` [ethyl acetate] + CCC[n+]1ccn(C)c1C.F[B-](F)(F)F gave an activity coefficient of 8.63 ± 0.74. With `CCO` [ethanol] + CCC[n+]1ccn(C)c1C.F[B-](F)(F)F the activity coefficient was 1.18 ± 0.098. Work on `CC(C)CO` [2-methyl-1-propanol] + CCC[n+]1ccn(C)c1C.F[B-](F)(F)F yielded an activity coefficient of 2.03 ± 0.17.
